Measurements as given in US20240180872A1, “METHODS AND COMPOUNDS OF CANNABIDIOL, MELATONIN AND AKBA FOR TREATING PANCREATIC CANCER” (priority 2021, published 2024).

Assays:
[1] = system: PANC-1 cell line; assay: Cytotoxicity assay (MTT, 72 hours, daily administration) in PANC-1; conditions: Homo sapiens, PANC-1, read-out: % VIABILITY ± S.D.
Experimental: Human pancreatic ductal adenocarcinoma (PANC-1 and MIAPaCa-2) cell lines were purchased by Sigma Aldrich (Milan, Italy) and cultured in DMEM high glucose medium (EuroClone, Milan, Italy) supplemented with 10% of fetal bovine serum (FBS), 2 mM L-glutamine, 100 IU/mL penicillin, 100 mg streptomycin and 1 mM sodium pyruvate. Cell lines were maintained at 37° C. with 5% CO2 and 95% of humidity.
3×10^4 cells/mL were seeded in 96-well plates in a final volume of 100 L/well. After one day of incubation, compounds or vehicles, alone or in combination, were added and six replicates were used for each treatment and all experiments were repeated three times. In all the experiments, the treatment was daily added, after washing with fresh medium. After 72 hours cell viability was investigated by adding 0.8 mg/mL of 3-[4,5-dimethylthiazol-2-yl]-2,5 diphenyl tetrazolium bromide (MTT) (Sigma Aldrich) to the media. After 3 h the supernatant was removed, and the pellet of salt crystals was solubilized with 100 μL/well of DMSO. The absorbance of the sample against a background control was measured at 570 nm using an ELISA reader microliter plate (BioTek Instruments, Winooski, VT, USA).
Cytotoxicity in PDAC cell lines: The effect of CBD, MLT and AKBA in reducing cell viability was evaluated at 72 hours, post daily administration, in PDAC cell lines. Cells were treated with different doses of CBD, MLT and AKBA (up to 1 mg) and percentage of cell viability was evaluated by the MTT assay. […] The compounds were administered daily for 72 hours, as in previous experiments at the desired doses. […] MTT assay was used to analyse the cell cytotoxicity.

[2] = system: pancreatic adenocarcinoma associated genes; assay: TaqMan Array gene expression in PANC-1, normalized for GAPDH; conditions: 24 hs, CBD 3.8, MLT 200, AKBA 7.5 micrograms/ml
Experimental: Total RNA from untreated or CBD, MLT, AKBA alone and in combination treated cell lines was extracted using Rneasy Mini kit (Qiagen, Milan, Italy). One microgram of total RNA from each sample was subjected to reverse transcription in a total volume of 20 μL using the High-Capacity cDNA Archive Kit (Applied Biosystem, Foster City, […], USA) according to the instructions. cDNAs were analyzed by qRT-PCR performed using an IQ5 Multicolor Real time PCR Detection system. Quantitative real-time gene expression was performed with the TaqMan® Array Human Pancreatic Adenocarcinoma 96-well Plate, containing 92 assays to pancreatic adenocarcinoma associated genes and 4 assays to candidate endogenous control genes, was purchased (Thermo Fisher, Grand Island, NY, USA) and used to evaluate the treatments in modulating PDAC-related genes (Table 1). Measurement of different housekeeping genes (GAPDH; HPRT1; GUSB) on the samples was used to normalize mRNA content. The gene expression levels of treated cell lines were expressed as relative fold compared with untreated or vehicle-treated cells.
To elucidate the molecular events induced by CBD, MLT and AKBA alone and in combination, 92 genes involved in PDAC progression and aggressiveness were evaluated by Taqman Array. Both cell lines were treated with CBD, MLT and AKBA alone and in combination, and the molecular pathways of PDAC associated gene were evaluated.
Target mRNA levels were normalized for GAPDH expression.

[3] = system: U251 Glioblastoma cell line; assay: Cytotoxicity assay (MTT, 72 hours, daily administration) in U251; assay type: cell-based; conditions: Homo sapiens, U-251, read-out: % VIABILITY ± S.D.
From the text: (§1) The combinations were effective in other human tumor cell lines and we tested in glioblastoma cell line and endometrial cancer cell Additional tests include data obtained from two independent experiments, six wells for dose.

[4] = system: PCEM004a endometrial cancer cell line; assay: Cytotoxicity assay (MTT, 72 hours, daily administration) in PCEM004a; assay type: cell-based; conditions: Homo sapiens, read-out: % VIABILITY ± S.D.
From the text: as §1

[5] = cited from earlier work

## CC(=O)O[C@@H]1CC[C@@]2(C)[C@@H](CC[C@]3(C)[C@@H]2C(=O)C=C2[C@@H]4[C@@H](C)[C@H](C)CC[C@]4(C)CC[C@]23C)[C@@]1(C)C(=O)O [AKBA, (3R,4R,4aR,6aR,6bS,8aR,11R,12S,12aR,14aR,14bS)-3-acetyloxy-4,6a,6b,8a,11,12,14b-heptamethyl-14-oxo-1,2,3,4a,5,6,7,8,9,10,11,12,12a, 14a-tetradecahydropicene-4-carboxylic acid]
[1]
  viability at 5 µg/mL: 92.1 ± 5.3%
  viability at 7.5 µg/mL: 86.2 ± 6.6%
  viability at 10 µg/mL: 78.2 ± 5.9%
  viability at 15 µg/mL: 55.3 ± 4.4%
[2]; VEI 0.00
  AKT3 mRNA relative expression: 0.00
  ARHGEF7 mRNA relative expression: 0.00
  BCL2 mRNA relative expression: 0.00
  CCND2 mRNA relative expression: 0.00
  CDKN2B mRNA relative expression: 0.20
  CYP2E1 mRNA relative expression: 0.00
  EGF mRNA relative expression: 0.00
  IGF1 mRNA relative expression: 0.00
  IL6 mRNA relative expression: 0.00
  KDR mRNA relative expression: 0.00
  KIT mRNA relative expression: 0.00
  MAPK3 mRNA relative expression: 0.00
  MMP1 mRNA relative expression: 0.02
  MMP3 mRNA relative expression: 0.00
  TGFA mRNA relative expression: 0.02
  TGFB2 mRNA relative expression: 0.12
[2]; VEI 0.01
  JAK2 mRNA relative expression: 0.04
  JAK3 mRNA relative expression: 0.03
  MMP7 mRNA relative expression: 0.03
  MMP9 mRNA relative expression: 0.03
  PK3CA mRNA relative expression: 0.02
  RAC2 mRNA relative expression: 0.01
  RB1 mRNA relative expression: 0.15
  TGFB3 mRNA relative expression: 0.05
[2]; VEI 0.02
  TGFBR1 mRNA relative expression: 0.07
[2]; VEI 0.03
  BRCA2 mRNA relative expression: 0.10
  CDKN2D mRNA relative expression: 0.05
  MDM2 mRNA relative expression: 0.04
  RHOB mRNA relative expression: 0.05
[2]; VEI 0.04
  CDKN2C mRNA relative expression: 0.12
  PK3R1 mRNA relative expression: 0.03
  PTGS2 mRNA relative expression: 0.08
  STATSB mRNA relative expression: 0.20
[2]; VEI 0.05
  MAPK1 mRNA relative expression: 0.60
  SMAD2 mRNA relative expression: 0.04
[2]; VEI 0.06
  CCND1 mRNA relative expression: 0.10
  MAP2K2 mRNA relative expression: 0.10
  PK3CD mRNA relative expression: 0.05
  TGFBR2 mRNA relative expression: 0.10
  VEGFA mRNA relative expression: 0.45
  VEGFB mRNA relative expression: 0.18
[2]; VEI 0.07
  CCNA2 mRNA relative expression: 0.10
  CCNE2 mRNA relative expression: 0.06
  EZF3 mRNA relative expression: 0.07
  SMAD4 mRNA relative expression: 0.09
  SOS1 mRNA relative expression: 0.10
  TGFB1 mRNA relative expression: 0.15
[2]; VEI 0.08
  MAP2K1 mRNA relative expression: 0.10
  MMP2 mRNA relative expression: 0.20
  VEGFC mRNA relative expression: 0.12
[2]; VEI 0.09
  CCNE1 mRNA relative expression: 0.10
  CDK2 mRNA relative expression: 0.10
  KRAS mRNA relative expression: 0.09
  RAC1 mRNA relative expression: 0.10
  REL mRNA relative expression: 0.08
  STAT2 mRNA relative expression: 0.11
[2]; VEI 0.10
  CDKN1B mRNA relative expression: 0.10
  CDKN2A mRNA relative expression: 0.12
  RELA mRNA relative expression: 0.10
[2]; VEI 0.11
  AKT1 mRNA relative expression: 0.20
  PK3CB mRNA relative expression: 0.16
[2]; VEI 0.14
  FIGF mRNA relative expression: 0.00
  TP53 mRNA relative expression: 0.38
[2]; VEI 0.16
  EZF4 mRNA relative expression: 0.18
  NFKB2 mRNA relative expression: 0.10
[2]; VEI 0.17
  EZF1 mRNA relative expression: 0.14
  SMAD3 mRNA relative expression: 0.20
[2]; VEI 0.18
  STAT1 mRNA relative expression: 0.31
[2]; VEI 0.22
  BRAF mRNA relative expression: 0.18
[2]; VEI 0.23
  BIRC5 mRNA relative expression: 0.22
  JAK1 mRNA relative expression: 1.10
[2]; VEI 0.24
  CDK4 mRNA relative expression: 0.25
  EGFR mRNA relative expression: 0.18
[2]; VEI 0.25
  RAF1 mRNA relative expression: 0.08
[2]; VEI 0.27
  CCNB1 mRNA relative expression: 0.20
  ERBB2 mRNA relative expression: 0.07
  SRC mRNA relative expression: 0.14
[2]; VEI 0.31
  GRB2 mRNA relative expression: 0.38
[2]; VEI 0.35
  BCL2L1 mRNA relative expression: 0.23
  HSP90AA1 mRNA relative expression: 0.22
  NFKB1 mRNA relative expression: 0.10
[2]; VEI 0.37
  RHOA mRNA relative expression: 0.30
[2]; VEI 0.41
  ELK1 mRNA relative expression: 0.11
[2]; VEI 0.42
  RELB mRNA relative expression: 0.12
[2]; VEI 0.45
  CDC42 mRNA relative expression: 0.02
[2]; VEI 0.49
  CDKN1A mRNA relative expression: 0.28
[2]; VEI 0.50
  AKT2 mRNA relative expression: 0.41
[2]; VEI 0.53
  HBEGF mRNA relative expression: 0.44
[2]; VEI 1.03
  NOTCH1 mRNA relative expression: 0.05
[2]; VEI 1.38
  STAT6 mRNA relative expression: 0.13
[2]; VEI 4.45
  STAT3 mRNA relative expression: 0.18
[3]; AKBA 5 micrograms/ml
  viability at 5 µg/mL: 100 ± 5.3%
[3]; AKBA 7.5 micrograms/ml
  viability at 7.5 µg/mL: 100 ± 6.6%
[3]; AKBA 10 micrograms/ml
  viability at 10 µg/mL: 100 ± 2.2%
[3]; AKBA 15 micrograms/ml
  viability at 15 µg/mL: 76.4 ± 4.2%
[4]; AKBA 5 micrograms/ml
  viability at 5 µg/mL: 100 ± 7.5%
[4]; AKBA 7.5 micrograms/ml
  viability at 7.5 µg/mL: 98.4 ± 6.3%
[4]; AKBA 10 micrograms/ml
  viability at 10 µg/mL: 87.4 ± 5.8%
[4]; AKBA 15 micrograms/ml
  viability at 15 µg/mL: 60.2 ± 5.4%
[5]; 1:2 solution of DMSO:PBS (pH 7.2)
  solubility: approximately 0.3 mg/ml
[5]; aqueous buffers
  solubility in aqueous buffers: sparingly soluble
